Results taken from ChEMBL document CHEMBL5696443 (Clin Cancer Res, 2016).
Activity calls are given as the source filed them. The calls are words filed in the database; no cut-off is given here.

How the values were obtained:
[1] = molecular target: Glycogen synthase kinase-3 beta (Homo sapiens) (UniProt P49841); assay: Inhibition of human GSK3beta at 1 uM using YRRAAVPPSPSLSRHSSPHQ(pS)EDEEE as substrate in presence of [gamma33P]-ATP by HotSpot assay relative to control
[2] = molecular target: Serine/threonine-protein kinase Nek1 (Homo sapiens) (UniProt Q96PY6); assay: Inhibition of human NEK1 at 1 uM using MBP as substrate in presence of [gamma33P]-ATP by HotSpot assay relative to control
Chain of Serine/threonine-protein kinase Nek1 (Homo sapiens) (Q96PY6 whole entry): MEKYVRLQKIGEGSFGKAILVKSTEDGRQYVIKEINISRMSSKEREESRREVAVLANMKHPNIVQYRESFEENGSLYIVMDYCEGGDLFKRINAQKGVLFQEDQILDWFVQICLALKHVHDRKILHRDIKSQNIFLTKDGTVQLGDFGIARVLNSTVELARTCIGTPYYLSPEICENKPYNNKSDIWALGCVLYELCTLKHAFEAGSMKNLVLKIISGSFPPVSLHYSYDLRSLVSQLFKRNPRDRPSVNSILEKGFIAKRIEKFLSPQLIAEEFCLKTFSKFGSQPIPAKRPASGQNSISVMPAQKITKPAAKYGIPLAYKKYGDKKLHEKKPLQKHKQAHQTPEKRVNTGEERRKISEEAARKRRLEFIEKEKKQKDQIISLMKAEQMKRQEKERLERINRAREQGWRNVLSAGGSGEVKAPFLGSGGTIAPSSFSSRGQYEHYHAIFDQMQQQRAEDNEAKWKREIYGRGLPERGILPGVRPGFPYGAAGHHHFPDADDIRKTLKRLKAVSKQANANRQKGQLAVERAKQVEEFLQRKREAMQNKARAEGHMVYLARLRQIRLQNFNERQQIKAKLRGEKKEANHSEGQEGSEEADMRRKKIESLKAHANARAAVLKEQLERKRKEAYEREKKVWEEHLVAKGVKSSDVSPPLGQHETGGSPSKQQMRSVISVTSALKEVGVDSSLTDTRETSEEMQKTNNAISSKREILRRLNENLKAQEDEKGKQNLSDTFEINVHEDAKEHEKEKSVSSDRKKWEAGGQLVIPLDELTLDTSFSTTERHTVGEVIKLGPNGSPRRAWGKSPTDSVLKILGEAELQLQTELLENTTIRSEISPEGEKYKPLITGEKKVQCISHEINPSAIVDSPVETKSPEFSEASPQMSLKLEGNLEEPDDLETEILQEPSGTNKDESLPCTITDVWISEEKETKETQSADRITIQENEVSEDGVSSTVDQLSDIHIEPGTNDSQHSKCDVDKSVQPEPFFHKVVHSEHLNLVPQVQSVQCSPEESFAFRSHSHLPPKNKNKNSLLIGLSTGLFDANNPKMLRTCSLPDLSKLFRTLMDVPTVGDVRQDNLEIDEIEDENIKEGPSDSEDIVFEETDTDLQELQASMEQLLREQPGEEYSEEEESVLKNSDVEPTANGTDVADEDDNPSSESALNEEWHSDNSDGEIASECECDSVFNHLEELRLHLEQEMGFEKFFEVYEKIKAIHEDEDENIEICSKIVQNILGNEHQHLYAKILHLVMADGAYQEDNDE

[3] = molecular target: T1, Tyrosine-protein kinase CSK (Homo sapiens, UniProt P41240); assay: Inhibition of human CSK using poly (Glu, Tyr)4:1 as substrate in presence of [gamma33P]-ATP by HotSpot assay
Target sequence in this assay (P41240 whole entry): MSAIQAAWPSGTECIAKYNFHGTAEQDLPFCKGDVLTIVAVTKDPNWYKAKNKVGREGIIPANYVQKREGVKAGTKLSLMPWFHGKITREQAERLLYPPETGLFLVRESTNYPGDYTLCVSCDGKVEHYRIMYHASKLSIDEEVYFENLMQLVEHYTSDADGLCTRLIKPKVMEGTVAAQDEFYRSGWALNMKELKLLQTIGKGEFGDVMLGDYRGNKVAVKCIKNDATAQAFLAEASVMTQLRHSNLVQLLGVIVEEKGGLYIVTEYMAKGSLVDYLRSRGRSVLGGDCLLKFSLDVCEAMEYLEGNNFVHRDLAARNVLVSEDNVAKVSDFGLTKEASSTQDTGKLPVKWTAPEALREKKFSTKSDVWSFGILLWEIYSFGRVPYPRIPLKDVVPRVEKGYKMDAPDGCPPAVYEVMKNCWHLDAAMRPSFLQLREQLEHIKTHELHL

[4] = molecular target: Serine/threonine-protein kinase PAK 5 (Homo sapiens) (UniProt Q9P286); assay: Inhibition of human PAK5 at 1 uM using RRRLSFAEPG as substrate in presence of [gamma33P]-ATP by HotSpot assay relative to control
[5] = molecular target: Mitogen-activated protein kinase 1 (Homo sapiens) (UniProt P28482); assay: Inhibition of human MAPK1 at 1 uM using MBP as substrate in presence of [gamma33P]-ATP by HotSpot assay relative to control
Chain of Mitogen-activated protein kinase 1 (Homo sapiens) (P28482 whole entry): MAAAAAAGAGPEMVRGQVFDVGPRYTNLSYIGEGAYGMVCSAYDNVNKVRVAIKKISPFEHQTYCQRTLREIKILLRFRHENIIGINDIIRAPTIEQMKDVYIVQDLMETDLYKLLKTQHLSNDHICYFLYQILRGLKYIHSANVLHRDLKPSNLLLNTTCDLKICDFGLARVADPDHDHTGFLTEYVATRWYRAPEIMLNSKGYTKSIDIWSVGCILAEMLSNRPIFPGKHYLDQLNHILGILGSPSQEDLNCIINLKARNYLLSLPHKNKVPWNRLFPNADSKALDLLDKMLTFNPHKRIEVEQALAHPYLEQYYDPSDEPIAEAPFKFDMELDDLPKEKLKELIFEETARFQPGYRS

[6] = molecular target: Wee1-like protein kinase (Homo sapiens) (UniProt P30291); assay: Inhibition of human WEE1 at 1 uM using CDK1 (D146N)/cyclin B1 as substrate in presence of [gamma33P]-ATP by HotSpot assay relative to control
[7] = molecular target: Serine/threonine-protein kinase TAO2 (Homo sapiens) (UniProt Q9UL54); assay: Inhibition of human TAOK2 at 1 uM using MBP as substrate in presence of [gamma33P]-ATP by HotSpot assay relative to control
[8] = tested on: Mus musculus; assay: In vivo inhibition of ALK signaling in SCID Beige mouse xenografted with ALK positive human KARPAS-299 cells assessed as reduction in phosphorylated STAT3 level at 10 to 50 mg/kg, po administered as single dose and measured at 6 to 24 hrs by immunoblot analysis; type: functional, organism-based; conditions: dose 10-50 mg/kg, time 6-24 hrs
[9] = molecular target: Macrophage colony-stimulating factor 1 receptor (Homo sapiens, UniProt P07333); assay: Inhibition of human FMS using poly (Glu, Tyr)4:1 as substrate in presence of [gamma33P]-ATP by HotSpot assay
[10] = molecular target: Calcium/calmodulin-dependent protein kinase type II subunit beta (Homo sapiens) (UniProt Q13554); assay: Inhibition of human CAMK2b at 1 uM using KKALRRQETVDAL as substrate in presence of [gamma33P]-ATP by HotSpot assay relative to control
[11] = molecular target: Tyrosine-protein kinase Lck (Homo sapiens, UniProt P06239); assay: Inhibition of human LCK using poly (Glu, Tyr)4:1 as substrate in presence of [gamma33P]-ATP by HotSpot assay
Chain of Tyrosine-protein kinase Lck (P06239 whole entry): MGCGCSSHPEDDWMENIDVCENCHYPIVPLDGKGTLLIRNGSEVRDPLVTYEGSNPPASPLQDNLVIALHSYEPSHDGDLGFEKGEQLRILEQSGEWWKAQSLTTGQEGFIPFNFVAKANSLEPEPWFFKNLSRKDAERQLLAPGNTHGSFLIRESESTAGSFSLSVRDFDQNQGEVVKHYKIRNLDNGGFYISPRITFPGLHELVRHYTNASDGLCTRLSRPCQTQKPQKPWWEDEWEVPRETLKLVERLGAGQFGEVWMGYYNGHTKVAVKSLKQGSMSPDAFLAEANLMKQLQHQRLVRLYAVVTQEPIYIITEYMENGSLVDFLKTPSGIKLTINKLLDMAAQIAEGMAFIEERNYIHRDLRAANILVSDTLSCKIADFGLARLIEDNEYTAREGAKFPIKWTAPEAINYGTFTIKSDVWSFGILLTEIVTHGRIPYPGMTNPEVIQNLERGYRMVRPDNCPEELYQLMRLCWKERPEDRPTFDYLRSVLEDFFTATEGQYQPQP

[12] = molecular target: Megakaryocyte-associated tyrosine-protein kinase (Homo sapiens) (UniProt P42679); assay: Inhibition of human MATK at 1 uM using poly (Glu, Tyr)4:1 as substrate in presence of [gamma33P]-ATP by HotSpot assay relative to control
Chain of Megakaryocyte-associated tyrosine-protein kinase (Homo sapiens) (P42679 whole entry): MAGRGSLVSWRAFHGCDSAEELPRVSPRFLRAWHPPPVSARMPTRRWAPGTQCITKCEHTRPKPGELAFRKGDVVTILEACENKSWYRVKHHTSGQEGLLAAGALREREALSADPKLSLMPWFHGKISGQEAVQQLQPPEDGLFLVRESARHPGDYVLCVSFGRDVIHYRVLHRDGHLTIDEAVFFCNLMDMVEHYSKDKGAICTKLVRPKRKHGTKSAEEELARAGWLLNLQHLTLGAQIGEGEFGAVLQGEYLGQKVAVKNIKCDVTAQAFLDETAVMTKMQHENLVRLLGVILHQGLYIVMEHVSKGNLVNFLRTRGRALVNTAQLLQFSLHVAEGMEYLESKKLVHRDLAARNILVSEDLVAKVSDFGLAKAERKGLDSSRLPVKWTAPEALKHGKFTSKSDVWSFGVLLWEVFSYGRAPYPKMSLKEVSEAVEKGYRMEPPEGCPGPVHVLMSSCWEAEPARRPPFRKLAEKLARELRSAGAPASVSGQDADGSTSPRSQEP

[13] = molecular target: Protein kinase C zeta type (Homo sapiens) (UniProt Q05513); assay: Inhibition of human PRKCZ at 1 uM using ERMRPRKRQGSVRRRV as substrate in presence of [gamma33P]-ATP by HotSpot assay relative to control
Chain of Protein kinase C zeta type (Homo sapiens) (Q05513 whole entry, canonical isoform): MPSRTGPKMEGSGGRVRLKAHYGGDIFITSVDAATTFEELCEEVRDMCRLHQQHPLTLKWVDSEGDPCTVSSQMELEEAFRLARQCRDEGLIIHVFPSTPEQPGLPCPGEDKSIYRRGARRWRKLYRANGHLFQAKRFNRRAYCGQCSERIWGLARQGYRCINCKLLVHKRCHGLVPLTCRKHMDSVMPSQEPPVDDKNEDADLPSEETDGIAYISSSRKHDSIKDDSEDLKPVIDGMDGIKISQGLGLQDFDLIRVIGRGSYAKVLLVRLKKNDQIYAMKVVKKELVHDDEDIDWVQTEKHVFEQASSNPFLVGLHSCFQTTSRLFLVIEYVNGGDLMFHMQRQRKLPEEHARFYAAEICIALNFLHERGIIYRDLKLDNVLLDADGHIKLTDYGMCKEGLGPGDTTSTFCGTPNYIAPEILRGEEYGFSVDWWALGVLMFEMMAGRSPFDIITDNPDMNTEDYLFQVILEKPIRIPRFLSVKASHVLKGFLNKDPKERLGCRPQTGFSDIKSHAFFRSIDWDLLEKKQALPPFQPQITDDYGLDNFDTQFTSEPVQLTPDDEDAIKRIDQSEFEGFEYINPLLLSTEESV

[14] = molecular target: Casein kinase I isoform alpha (Homo sapiens) (UniProt P48729); assay: Inhibition of human CSNK1A1 at 1 uM using KRRRAL[pS]VASLPGL as substrate in presence of [gamma33P]-ATP by HotSpot assay relative to control
[15] = molecular target: CDK9/Cyclin K (Homo sapiens) (UniProt P50750+O75909); assay: Inhibition of human CDK9/CyclinK at 1 uM using KTFCGTPEYLAPEVRREPRILSEEEQEMFRDFDYIADWC as substrate in presence of [gamma33P]-ATP by HotSpot assay relative to control; type: protein-complex assay
[16] = molecular target: Protein kinase C delta type (Homo sapiens) (UniProt Q05655); assay: Inhibition of human PRKCD at 1 uM using ERMRPRKRQGSVRRRV as substrate in presence of [gamma33P]-ATP by HotSpot assay relative to control
[17] = molecular target: Tyrosine-protein kinase Lyn (Homo sapiens, UniProt P07948); assay: Inhibition of human LYN using poly (Glu, Tyr)4:1 as substrate in presence of [gamma33P]-ATP by HotSpot assay
[18] = molecular target: cGMP-dependent protein kinase 1 (Homo sapiens, UniProt Q13976); assay: Inhibition of human PRKG1 using LRRASLG as substrate in presence of [gamma33P]-ATP by HotSpot assay
[19] = molecular target: Serine/threonine-protein kinase N2 (Homo sapiens) (UniProt Q16513); assay: Inhibition of human PKN2 at 1 uM using LRRASLG as substrate in presence of [gamma33P]-ATP by HotSpot assay relative to control
[20] = molecular target: Tyrosine-protein kinase Mer (Homo sapiens, UniProt Q12866); assay: Inhibition of human MERTK using poly (Glu, Tyr)4:1 as substrate in presence of [gamma33P]-ATP by HotSpot assay
[21] = tested on: EML4-ALK (Homo sapiens), Q9UM73+Q9HC35 [F1174C]; conditions: BaF3, dose 200.0 nmol/L, time 3-5 weeks
[22] = molecular target: T1, Tyrosine-protein kinase CSK; assay: Inhibition of human CSK at 1 uM using poly (Glu, Tyr)4:1 as substrate in presence of [gamma33P]-ATP by HotSpot assay relative to control
[23] = tested on: EML4-ALK (Homo sapiens), Q9UM73+Q9HC35 [I1171N]; conditions: BaF3, time 3-5 weeks
[24] = molecular target: Death-associated protein kinase 2 (Homo sapiens) (UniProt Q9UIK4); assay: Inhibition of human DAPK2 at 1 uM using KKLNRTLSFAEPG as substrate in presence of [gamma33P]-ATP by HotSpot assay relative to control
Chain of Death-associated protein kinase 2 (Homo sapiens) (Q9UIK4 whole entry, looked up): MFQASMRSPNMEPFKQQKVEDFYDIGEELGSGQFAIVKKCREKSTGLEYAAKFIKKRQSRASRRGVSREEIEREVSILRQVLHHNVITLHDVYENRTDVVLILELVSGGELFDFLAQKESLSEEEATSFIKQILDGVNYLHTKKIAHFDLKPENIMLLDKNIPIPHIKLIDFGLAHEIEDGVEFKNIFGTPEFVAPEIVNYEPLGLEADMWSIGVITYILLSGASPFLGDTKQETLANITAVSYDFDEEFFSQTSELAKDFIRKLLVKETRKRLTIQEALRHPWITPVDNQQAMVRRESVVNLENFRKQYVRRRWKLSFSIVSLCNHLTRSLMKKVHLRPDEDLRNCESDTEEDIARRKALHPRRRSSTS

[25] = tested on: EML4-ALK (Homo sapiens), Q9UM73+Q9HC35 [C1156Y]; conditions: BaF3, time 3-5 weeks
[26] = tested on: EML4-ALK (Homo sapiens), Q9UM73+Q9HC35 [F1174C]; conditions: BaF3, time 3-5 weeks
[27] = molecular target: Mitogen-activated protein kinase kinase kinase 9 (Homo sapiens, UniProt P80192); assay: Inhibition of human MAP3K9 using casein as substrate in presence of [gamma33P]-ATP by HotSpot assay
[28] = molecular target: Ephrin type-A receptor 2 (Homo sapiens) (UniProt P29317); assay: Inhibition of human EPHA2 at 1 uM using poly (Glu, Tyr)4:1 as substrate in presence of [gamma33P]-ATP by HotSpot assay relative to control
Chain of Ephrin type-A receptor 2 (Homo sapiens) (P29317 whole entry): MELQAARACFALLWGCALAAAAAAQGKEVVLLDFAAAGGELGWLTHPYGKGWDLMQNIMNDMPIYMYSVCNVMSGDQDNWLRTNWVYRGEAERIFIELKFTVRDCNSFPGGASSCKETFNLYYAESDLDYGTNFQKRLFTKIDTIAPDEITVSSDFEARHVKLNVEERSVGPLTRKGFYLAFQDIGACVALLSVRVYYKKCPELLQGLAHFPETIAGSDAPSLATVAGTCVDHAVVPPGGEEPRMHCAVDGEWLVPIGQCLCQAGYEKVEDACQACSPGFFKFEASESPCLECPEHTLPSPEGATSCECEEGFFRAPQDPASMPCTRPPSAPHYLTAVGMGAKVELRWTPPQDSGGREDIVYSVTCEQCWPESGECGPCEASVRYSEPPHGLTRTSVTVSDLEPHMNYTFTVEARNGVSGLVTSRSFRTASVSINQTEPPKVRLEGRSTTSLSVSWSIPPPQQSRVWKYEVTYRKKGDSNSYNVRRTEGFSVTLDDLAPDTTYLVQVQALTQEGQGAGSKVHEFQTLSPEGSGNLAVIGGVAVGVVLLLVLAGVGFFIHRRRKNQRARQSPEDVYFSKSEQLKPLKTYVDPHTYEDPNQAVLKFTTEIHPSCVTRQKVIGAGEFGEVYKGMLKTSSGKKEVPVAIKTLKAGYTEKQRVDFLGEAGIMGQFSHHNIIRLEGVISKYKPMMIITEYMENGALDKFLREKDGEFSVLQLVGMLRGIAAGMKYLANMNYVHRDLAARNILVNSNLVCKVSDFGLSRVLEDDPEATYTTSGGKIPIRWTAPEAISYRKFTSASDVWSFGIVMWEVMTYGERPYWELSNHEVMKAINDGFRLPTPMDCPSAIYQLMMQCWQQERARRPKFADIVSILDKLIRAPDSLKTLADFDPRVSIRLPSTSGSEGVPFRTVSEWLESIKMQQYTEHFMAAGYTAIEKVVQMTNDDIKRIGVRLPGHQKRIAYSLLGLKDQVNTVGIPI

`COc1cc(N2CCC(N3CCN(C)CC3)CC2)ccc1Nc1ncc(Cl)c(Nc2ccccc2P(C)(C)=O)n1` [BRIGATINIB] was tested, and the inhibition [1] was less than 90%, the inhibition [2] was less than 90% and the IC50 [3] was 329 nM. It also gave an inhibition [4] of less than 90%, an inhibition [5] of less than 90% and an inhibition [6] of less than 90%. For the same compound, the inhibition [7] was less than 90%, the Activity [8] was “Active” and the IC50 [9] was 358 nM. The inhibition [10] was less than 90%, the IC50 [11] was 512 nM and the inhibition [12] was less than 90%. The inhibition [13] was less than 90%, the inhibition [14] was less than 90% and the inhibition [15] was less than 90%. It also gave an inhibition [16] of less than 90%, an IC50 [17] of 241 nM and an IC50 [18] greater than 1000 nM. The inhibition [19] was less than 90%, the IC50 [20] was greater than 1000 nM and the inhibition [21] was “inactive”. The inhibition [22] was less than 90%, the IC90 [23] was 278 nM and the inhibition [24] was less than 90%. The IC90 [25] was 129 nM, the IC90 [26] was 160 nM and the IC50 [27] was 218 nM. For the same compound, the inhibition [28] was less than 90%.
